Assay results from paper PMC5337940, “Sansanmycin natural product analogues as potent and selective anti-mycobacterials that inhibit lipid I biosynthesis” (Nature Communications, 2017).
Values after ≈ are worked out from the molar mass of the structure shown. Like-named read-outs stand apart in the source and are kept apart here.

Key:
[1] = test system: Mtb H37Rv; assay: Resazurin reduction microplate assay, growth inhibition of Mtb H37Rv; assay type: cell-based, Mycobacterium tuberculosis; conditions: Mycobacterium tuberculosis, H37RV
[2] = in vitro; assay type: in vitro ADME; conditions: plasma
Excerpt: Human blood from nonidentifiable volunteer donors was sourced from the Australian Red Cross Blood Service under a supply agreement approved by the Monash Human Research Ethics Committee. Mouse blood was collected in-house under tissue harvesting protocols approved by the Monash Institute of Pharmaceutical Sciences Animal Ethics Committee. Pooled human and Swiss outbred mouse plasma samples were thawed and spiked with test compound solutions prepared in DMSO/acetonitrile/water (20:40:40) to provide a final compound concentration of 1,000 ng ml^−1 and final DMSO and acetonitrile concentrations of 0.2% and 0.4% (v/v), respectively. Plasma was vortex mixed and aliquots (50 μl) were transferred to fresh microcentrifuge tubes and incubated at 37 °C. At various time points over the 6 h incubation period, duplicate plasma samples were removed and immediately snap-frozen in dry ice. All samples were stored frozen at −80 °C until analysis by LC–MS. Samples were processed by protein precipitation using a two-fold excess of acetonitrile followed by centrifugation. Analysis of the supernate was conducted using a Waters (Milford, MA) Acquity UPLC coupled to a Waters Micromass Quattro Premier mass spectrometer operated in positive electrospray ionization mode with multiple reaction monitoring. The cone voltage was 45 V, collision energy was 30, 30 and 40 V for 25, 36 and 37, respectively, and m/z transitions were 782.30>126.06 (25), 826.32>170.16 (36) and 888.39>126.06 (37). Processed samples (3 μl) were injected onto a Supelco Ascentis Express RP Amide column (50 × 2.1 mm, 2.7 μm) and analytes eluted using a water/acetonitrile (each containing 0.05% formic acid) gradient over 4 min with a flow rate was 0.4 ml min^−1. Sample concentrations were quantitated by comparison to a calibration curve prepared in blank human or mouse plasma.

[3] = biological target: T1, Mtb MurX (Mycobacterium tuberculosis, UniProt P9WMW7); assay: Radiochemical (TLC) MurX-MurG coupled inhibition assay in Mtb mc2 6230 membranes; assay type: biochemical; conditions: for inhibition at 0.2 µM: 200 nM inhibitor, decrease in lipid II formation
[4] = test system: HEK293 cells; assay: Cytotoxicity counter-screen, resazurin reduction microplate assay; assay type: cell-based; conditions: Homo sapiens, tested up to 200 μM, read-out: MIC50 (HEK293)
[5] = in vitro; assay type: in vitro ADME; conditions: microsomes; for Average half-life: 0.5 μM; for half-life at 0.5 μM: Average half-life
Method: The metabolic stability was assessed by incubating each test compound (0.5 μM) in duplicate with human and mouse liver microsomes (XenoTech, Kansas City, KS) at 37 °C and 0.4 mg ml^−1 microsomal protein. The metabolic reaction was initiated by the addition of an NADPH-regenerating system and quenched at various time points over a 60 min incubation period by the addition of acetonitrile containing diazepam as internal standard. Control samples (containing no NADPH) were included and quenched at 2, 30 and 60 min to monitor for potential degradation in the absence of cofactor. Samples were centrifuged and the supernatant analysed by LCMS. Analysis was conducted using a Waters Acquity UPLC coupled to a Waters Xevo G2 QTOF mass spectrometer operated in positive electrospray ionization MS^E mode with a cone voltage of 30 V. Samples (5 μl) were injected onto an Ascentis Express Amide column (50 × 2.1 mm, 2.7 μm) and eluted using a water/acetonitrile (both containing 0.05% formic acid) gradient over 4 min at a flow rate of 0.4 ml min^−1. Degradation rate half-lives and in vitro intrinsic clearance values were determined from the first order degradation profiles.

[6] = biological target: T1, Mtb MurX; assay: biochemical
[7] = test system: Mtb H37Ra in THP-1 cells; assay: Intracellular assay, Mtb-infected THP-1 macrophages, CFU count; conditions: read-out: IC50 intracellular anti-mycobacterial activity; THP-1 macrophages infected with Mtb (H37Ra), average of 2 independent experiments
[8] = test system: H37Rv; set-up: method as in Xie et al. 14, 15; conditions: isolated natural products; ref Xie et al. 14, 15; cited from earlier work
[9] = Mtb H37Rv, read-out: MIC50 against Mtb
[10] = average of two independent experiments, each in triplicate, read-out: MIC50 Mtb H37Rv

T1 sequence (P9WMW7 whole entry): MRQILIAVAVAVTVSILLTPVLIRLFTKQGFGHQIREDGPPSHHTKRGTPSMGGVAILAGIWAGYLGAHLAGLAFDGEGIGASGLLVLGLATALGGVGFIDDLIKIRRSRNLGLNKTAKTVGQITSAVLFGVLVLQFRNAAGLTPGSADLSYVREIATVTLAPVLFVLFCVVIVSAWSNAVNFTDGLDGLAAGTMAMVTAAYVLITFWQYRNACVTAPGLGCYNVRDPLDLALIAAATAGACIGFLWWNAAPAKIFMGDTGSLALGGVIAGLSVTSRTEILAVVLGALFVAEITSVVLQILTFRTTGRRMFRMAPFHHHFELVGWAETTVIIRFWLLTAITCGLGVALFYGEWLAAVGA

Row | Compound | MIC50 [1, 9] [µM] | MIC50 [1, 10] [µM] | half-life at 1000 ng/ml ([2]; Swiss outbred, mouse) [h] | half-life at 1000 ng/ml ([2]; human) [h] | IC50 [3] [nM] | inhibition at 0.2 µM [3] [%] | CC50 [4] [nM] | microsomal CLint at 0.5 μM ([5]; human) [µL/min/mg] | Average half-life ([5]; human) [h] | half-life at 0.5 μM ([5]; human) [h] | microsomal CLint at 0.5 μM ([5]; mouse) [µL/min/mg] | Average half-life ([5]; mouse) [h] | half-life at 0.5 μM ([5]; mouse) [h] | IC50 [6] [nM] | IC50 [7] [nM] | MIC (H37Rv) [8] [µM]
1 | C[C@@H]([C@H](NC(=O)[C@H](CC1CCCCC1)NC(=O)N[C@@H](Cc1c[nH]c2ccccc12)C(=O)O)C(=O)NC[C@H]1C[C@@H](O)[C@H](n2ccc(=O)[nH]c2=O)O1)N(C)C(=O)CN [Compound 25] | 0.08 (≈ 0.0625 µg/mL) | 0.08 ± 0.02 (≈ 0.0625 µg/mL) | > 7 | > 7 | 54 | 100 | > 200000 | < 7 | > 2.67 | > 4.12 | < 7 | > 2.67 | > 4.12 | 30 | 1570 | –
2 | C[C@@H]([C@H](NC(=O)[C@H](CC1CCCCC1)NC(=O)N[C@@H](Cc1c[nH]c2ccccc12)C(=O)O)C(=O)NC[C@H]1C[C@@H](O)[C@H](n2ccc(=O)[nH]c2=O)O1)N(C)C(=O)[C@@H](N)Cc1cccc(O)c1 [Compound 37] | 0.037 (≈ 0.0329 µg/mL) | 0.037 ± 0.06 (≈ 0.0329 µg/mL) | > 7 | > 7 | 41 | 100 | > 200000 | 10 | > 2.67 | 2.9 | 7 | > 2.67 | 3.88 | 16 | 110 | –
3 | C[C@@H]([C@H](NC(=O)[C@H](Cc1ccc2ccccc2c1)NC(=O)N[C@@H](Cc1c[nH]c2ccccc12)C(=O)O)C(=O)NC[C@H]1C[C@@H](O)[C@H](n2ccc(=O)[nH]c2=O)O1)N(C)C(=O)CN [Compound 36] | 0.18 (≈ 0.149 µg/mL) | 0.18 ± 0.02 (≈ 0.149 µg/mL) | > 7 | > 7 | 48 | 100 | > 200000 | < 7 | > 2.67 | > 4.12 | 10 | > 2.67 | 2.77 | 14 | 4330 | –
4 | CC(C)C[C@H](NC(=O)N[C@@H](Cc1c[nH]c2ccccc12)C(=O)O)C(=O)N[C@H](C(=O)N/C=C1/C[C@@H](O)[C@H](n2ccc(=O)[nH]c2=O)O1)[C@H](C)N(C)C(=O)[C@@H](N)c1cccc(O)c1 [Compound 2, Sansanmycin B] | – | – | – | – | – | – | – | – | – | – | – | – | – | – | – | 9.5 (≈ 7.9 µg/mL)
5 | CSCC[C@H](NC(=O)N[C@@H](Cc1c[nH]c2ccccc12)C(=O)O)C(=O)N[C@H](C(=O)N/C=C1/C[C@@H](O)[C@H](n2ccc(=O)[nH]c2=O)O1)[C@H](C)N(C)C(=O)[C@@H](N)c1cccc(O)c1 [Compound 1, Sansanmycin A] | – | – | – | – | – | – | – | – | – | – | – | – | – | – | – | 18.5 (≈ 15.7 µg/mL)
6 | C[C@@H]([C@H](NC(=O)[C@H](CC[S+](C)[O-])NC(=O)N[C@@H](Cc1c[nH]c2ccccc12)C(=O)O)C(=O)N/C=C1/C[C@@H](O)[C@H](n2ccc(=O)[nH]c2=O)O1)N(C)C(=O)[C@@H](N)c1cccc(O)c1 (stereo partly drawn) [Compound 3, Sansanmycin C] | – | – | – | – | – | – | – | – | – | – | – | – | – | – | – | > 36.3
